Measured values published in patent publication US9512087B2, “Hybrid molecules containing pharmacophores of fluconazole as antifungal agents and their preparation” (Council for Scientific & Industrial Research, priority 2011, dated 2016).
Converted amounts (≈) assume the structure as drawn.

Tests used:
Experiment in all cases: Antifungal MIC, broth dilution
[1] = tested on: F. proliferatum ATCC 10052; assay type: cell-based, Fusarium proliferatum; conditions: end point 48 hours; for Fp01 MIC50: RPMI 1640 with MOPS; for MIC50: Fusarium proliferatum, ATCC10052, RPMI 1640 with MOPS, read-out: Fp01 MIC50
Method: (§1) The compounds of Formula 1 were tested for antifungal activity against Candida albicans, Aspergillus niger and Fusarium proliferatum. In vitro evaluation of antifungal activity was performed by determining the minimum inhibitory concentration (MIC) following standard methods (CLSI: Reference method for broth dilution antifungal susceptibility testing of yeasts; Approved standard, second edition M27-A2, 2002; CLSI: Reference method for broth dilution antifungal susceptibility testing of filamentous fungi; Approved standard M38-A, 2002). Anti-fungal susceptibility testing of these anti-fungal compounds was done by broth dilution method using RPMI 1640 medium with MOPS buffer. Known anti-fungal agents like fluconazole and amphotericin-B were used as positive control. End points were determined after 48 hours visually and by using spectrophotometer wherever necessary. Different dilutions were tried and various sets of experiments performed. The activity parameters are enumerated in Table 5.

[2] = tested on: C. glabrata ATCC 90030; assay type: cell-based; conditions: end point 48 hours; for Cg01 MIC50: RPMI 1640 with MOPS; for MIC50: Nakaseomyces glabratus, ATCC90030, RPMI 1640 with MOPS, read-out: Cg01 MIC50
[3] = tested on: C. krusei ATCC 6258; assay type: cell-based; conditions: end point 48 hours; for Ck01 MIC50: RPMI 1640 with MOPS; for MIC50: Pichia kudriavzevii, ATCC6258, RPMI 1640 with MOPS, read-out: Ck01 MIC50
[4] = tested on: A. fumigatus ATCC 46645; assay type: cell-based; conditions: end point 48 hours; for Afm01 MIC50: RPMI 1640 with MOPS; for MIC50: Aspergillus fumigatus, ATCC46645, RPMI 1640 with MOPS, read-out: Afm01 MIC50
[5] = tested on: C. neoformans ATCC 34664; assay type: cell-based; conditions: end point 48 hours; for Cn01 MIC50: RPMI 1640 with MOPS; for MIC50: Cryptococcus neoformans, ATCC34664, RPMI 1640 with MOPS, read-out: Cn01 MIC50
[6] = tested on: C. tropicalis ATCC 750; assay type: cell-based; conditions: end point 48 hours; for Ct01 MIC50: RPMI 1640 with MOPS; for MIC50: Candida tropicalis, ATCC750, RPMI 1640 with MOPS, read-out: Ct01 MIC50
[7] = tested on: A. niger ATCC 16404; assay type: cell-based, Aspergillus niger; conditions: end point 48 hours; for An01 MIC50: RPMI 1640 with MOPS; for MIC50: Aspergillus niger, ATCC16404, RPMI 1640 with MOPS, read-out: An01 MIC50
Method: as §1

[8] = tested on: C. albicans ATCC 24433; assay type: cell-based, Candida albicans; conditions: end point 48 hours; for Ca01 A: MIC80 / Ca01 B: MIC50: RPMI 1640 with MOPS; for MIC80 / MIC50: Candida albicans, ATCC24433, RPMI 1640 with MOPS; for MIC80: read-out: Ca01 A: MIC80; for MIC50: read-out: Ca01 B: MIC50
Method: as §1

Row | Compound | Fp01 MIC50 [1] | Cg01 MIC50 [2] | Ck01 MIC50 [3] | Afm01 MIC50 [4] | Cn01 MIC50 [5] | Ct01 MIC50 [6] | An01 MIC50 [7] | Ca01 A: MIC80 [8] | Ca01 B: MIC50 [8] | MIC50 [1] | MIC50 [2] | MIC50 [3] | MIC50 [4] | MIC50 [5] | MIC50 [6] | MIC50 [7] | MIC80 [8] | MIC50 [8]
1 | C[C@@H]1[C@H](O)[C@@H](C)/C=C/C=C/C=C/C=C/C=C/C=C/C=C/[C@H](O[C@@H]2O[C@H](C)[C@@H](O)[C@H](N)[C@@H]2O)C[C@@H]2O[C@](O)(C[C@@H](O)C[C@@H](O)[C@H](O)CC[C@@H](O)C[C@@H](O)CC(=O)O[C@H]1C)C[C@H](O)[C@H]2C(=O)O [AMB, amphotericin-B, reference compound] | 2 µg/mL | 0.25 µg/mL | 0.5 µg/mL | 0.5 µg/mL | 0.5 µg/mL | 0.5 µg/mL | 0.25 µg/mL | 0.25 µg/mL | 0.25 µg/mL |  |  |  |  |  |  |  |  | 
2 | COc1ccccc1/C=C/C(=O)c1ccc(OCC(O)(Cn2cncn2)c2ccc(F)cc2F)cc1 (stereo not drawn) [Compound 1A-3] |  |  |  |  |  |  |  |  |  | > 8 µg/mL | 0.5 µg/mL (≈ 1.02 µM) | > 8 µg/mL | > 8 µg/mL | 8 µg/mL (≈ 16.3 µM) | 2 µg/mL (≈ 4.07 µM) | > 8 µg/mL | 0.5 µg/mL (≈ 1.02 µM) | 0.25 µg/mL (≈ 0.509 µM)
3 | O=C(/C=C/c1ccccc1F)c1ccc(OCC(O)(Cn2cncn2)c2ccc(F)cc2F)cc1 (stereo not drawn) [Compound 1A-8] |  |  |  |  |  |  |  |  |  | > 4 µg/mL | 0.25 µg/mL (≈ 0.521 µM) | 4 µg/mL (≈ 8.34 µM) | > 4 µg/mL | 2 µg/mL (≈ 4.17 µM) | 0.5 µg/mL (≈ 1.04 µM) | > 4 µg/mL | 0.12 µg/mL (≈ 0.25 µM) | 0.12 µg/mL (≈ 0.25 µM)
4 | CCCCCCCCOc1ccc(/C=C/C(=O)c2ccc(OCC(O)(Cn3cncn3)c3ccc(F)cc3F)cc2)cc1 (stereo not drawn) [Compound 1A-9] | >2 µg/mL | >2 µg/mL | >2 µg/mL | >2 µg/mL | >2 µg/mL | >2 µg/mL | >2 µg/mL | >2 µg/mL | >2 µg/mL |  |  |  |  |  |  |  |  | 
5 | COc1ccc(/C=C/C(=O)c2ccc(OCC(O)(Cn3cncn3)c3ccc(F)cc3)cc2)cc1 (stereo not drawn) [Compound 1A-10] |  |  |  |  |  |  |  |  |  | > 4 µg/mL | 0.5 µg/mL (≈ 1.06 µM) | 4 µg/mL (≈ 8.45 µM) | > 4 µg/mL | 0.5 µg/mL (≈ 1.06 µM) | 4 µg/mL (≈ 8.45 µM) | > 4 µg/mL | 2 µg/mL (≈ 4.22 µM) | 0.25 µg/mL (≈ 0.528 µM)
6 | COc1ccc(/C=C/C(=O)c2ccc(OCC(O)(Cn3cncn3)c3ccc(Br)cc3)cc2)cc1 (stereo not drawn) [Compound 1A-11] |  |  |  |  |  |  |  |  |  | > 4 µg/mL | 1 µg/mL (≈ 1.87 µM) | > 4 µg/mL | > 4 µg/mL | 1 µg/mL (≈ 1.87 µM) | > 4 µg/mL | > 4 µg/mL | 1 µg/mL (≈ 1.87 µM) | 0.5 µg/mL (≈ 0.936 µM)
7 | O=C(/C=C/c1ccc(Cl)cc1)c1ccc(OCC(O)(Cn2cncn2)c2ccc(F)cc2)cc1 (stereo not drawn) [Compound 1A-12] |  |  |  |  |  |  |  |  |  | > 4 µg/mL | 0.5 µg/mL (≈ 1.05 µM) | 4 µg/mL (≈ 8.37 µM) | > 4 µg/mL | 0.5 µg/mL (≈ 1.05 µM) | 4 µg/mL (≈ 8.37 µM) | > 4 µg/mL | 2 µg/mL (≈ 4.18 µM) | 0.5 µg/mL (≈ 1.05 µM)
8 | O=C(/C=C/c1cccs1)c1ccc(OCC(O)(Cn2cncn2)c2ccc(F)cc2F)cc1 (stereo not drawn) [Compound 1A-13] |  |  |  |  |  |  |  |  |  | > 8 µg/mL | 0.25 µg/mL (≈ 0.535 µM) | 8 µg/mL (≈ 17.1 µM) | > 8 µg/mL | 1 µg/mL (≈ 2.14 µM) | 0.5 µg/mL (≈ 1.07 µM) | > 8 µg/mL | 0.25 µg/mL (≈ 0.535 µM) | 0.12 µg/mL (≈ 0.257 µM)
9 | O=C(/C=C/c1ccc2ccccc2c1)c1ccc(OCC(O)(Cn2cncn2)c2ccc(F)cc2F)cc1 (stereo not drawn) [Compound 1A-14] |  |  |  |  |  |  |  |  |  | > 4 µg/mL | 0.5 µg/mL (≈ 0.977 µM) | 1 µg/mL (≈ 1.95 µM) | > 4 µg/mL | 0.5 µg/mL (≈ 0.977 µM) | 0.5 µg/mL (≈ 0.977 µM) | > 4 µg/mL | 0.5 µg/mL (≈ 0.977 µM) | 0.25 µg/mL (≈ 0.489 µM)

Results, then the compound that gave them:

Row | Fp01 MIC50 [1] | Cg01 MIC50 [2] | Ck01 MIC50 [3] | Afm01 MIC50 [4] | Cn01 MIC50 [5] | Ct01 MIC50 [6] | An01 MIC50 [7] | Ca01 A: MIC80 [8] | Ca01 B: MIC50 [8] | MIC50 [1] | MIC50 [2] | MIC50 [3] | MIC50 [4] | MIC50 [5] | MIC50 [6] | MIC50 [7] | MIC80 [8] | MIC50 [8] | Compound
10 |  |  |  |  |  |  |  |  |  | > 2 µg/mL | 0.25 µg/mL (≈ 0.542 µM) | > 2 µg/mL | > 2 µg/mL | 1 µg/mL (≈ 2.17 µM) | 0.5 µg/mL (≈ 1.08 µM) | > 2 µg/mL | 0.12 µg/mL (≈ 0.26 µM) | 0.06 µg/mL (≈ 0.13 µM) | O=C(/C=C/c1ccccc1)c1ccc(OCC(O)(Cn2cncn2)c2ccc(F)cc2F)cc1 (stereo not drawn) [Compound 1A-1]
11 |  |  |  |  |  |  |  |  |  | > 4 µg/mL | 0.25 µg/mL (≈ 0.509 µM) | 4 µg/mL (≈ 8.14 µM) | > 4 µg/mL | 1 µg/mL (≈ 2.03 µM) | 0.25 µg/mL (≈ 0.509 µM) | 4 µg/mL (≈ 8.14 µM) | 0.12 µg/mL (≈ 0.244 µM) | 0.06 µg/mL (≈ 0.122 µM) | COc1ccc(/C=C/C(=O)c2ccc(OCC(O)(Cn3cncn3)c3ccc(F)cc3F)cc2)cc1 (stereo not drawn) [Compound 1A-2]
12 |  |  |  |  |  |  |  |  |  | > 4 µg/mL | 2 µg/mL (≈ 3.83 µM) | > 4 µg/mL | > 4 µg/mL | 2 µg/mL (≈ 3.83 µM) | 2 µg/mL (≈ 3.83 µM) | > 4 µg/mL | 1 µg/mL (≈ 1.92 µM) | 0.25 µg/mL (≈ 0.479 µM) | COc1cc(/C=C/C(=O)c2ccc(OCC(O)(Cn3cncn3)c3ccc(F)cc3F)cc2)cc(OC)c1 (stereo not drawn) [Compound 1A-4]
13 |  |  |  |  |  |  |  |  |  | > 4 µg/mL | 1 µg/mL (≈ 1.81 µM) | > 4 µg/mL | > 4 µg/mL | > 4 µg/mL | 1 µg/mL (≈ 1.81 µM) | > 4 µg/mL | 1 µg/mL (≈ 1.81 µM) | 0.25 µg/mL (≈ 0.453 µM) | COc1cc(/C=C/C(=O)c2ccc(OCC(O)(Cn3cncn3)c3ccc(F)cc3F)cc2)cc(OC)c1OC (stereo not drawn) [Compound 1A-5]
14 |  |  |  |  |  |  |  |  |  | > 4 µg/mL | 0.5 µg/mL (≈ 1.01 µM) | 2 µg/mL (≈ 4.03 µM) | > 4 µg/mL | 0.5 µg/mL (≈ 1.01 µM) | 0.5 µg/mL (≈ 1.01 µM) | > 4 µg/mL | 0.25 µg/mL (≈ 0.504 µM) | 0.5 µg/mL (≈ 1.01 µM) | O=C(/C=C/c1ccc(Cl)cc1)c1ccc(OCC(O)(Cn2cncn2)c2ccc(F)cc2F)cc1 (stereo not drawn) [Compound 1A-6]
15 |  |  |  |  |  |  |  |  |  | > 4 µg/mL | 0.5 µg/mL (≈ 0.943 µM) | 2 µg/mL (≈ 3.77 µM) | > 4 µg/mL | 2 µg/mL (≈ 3.77 µM) | 1 µg/mL (≈ 1.89 µM) | > 4 µg/mL | 0.25 µg/mL (≈ 0.471 µM) | 0.25 µg/mL (≈ 0.471 µM) | O=C(/C=C/c1ccc(Cl)cc1Cl)c1ccc(OCC(O)(Cn2cncn2)c2ccc(F)cc2F)cc1 (stereo not drawn) [Compound 1A-7, (E)-3-(2,4-dichlorophenyl)-1-(4-(2-(2,4-difluorophenyl)-2-hydroxy-3-(1H-1,2,4-triazol-1-yl)propoxy)phenyl)prop-2-en-1-one]
16 |  |  |  |  |  |  |  |  |  | > 2 µg/mL | 2 µg/mL (≈ 3.56 µM) | > 2 µg/mL | > 2 µg/mL | 2 µg/mL (≈ 3.56 µM) | > 2 µg/mL | > 2 µg/mL | > 2 µg/mL | > 2 µg/mL | O=C(/C=C/c1c2ccccc2cc2ccccc12)c1ccc(OCC(O)(Cn2cncn2)c2ccc(F)cc2F)cc1 (stereo not drawn) [Compound 1A-15]
